# Data published in patent US12213483B1, “Herbicidal compositions comprising trifludimoxazin” (BASF SE, priority 2024, dated 2025).
# Where “and” joins values, the source holds several entries; their conditions need not be identical. Equal values may be shown once.
# Assays:
# Assay type in all cases: in vivo
# [1] = system: Commelina benghalensis (COMBE); assay: Post-emergence application in greenhouse trials, COMBE
# Method: (§1) In the examples below, using the method of S. R. Colby (1967) “Calculating synergistic and antagonistic responses of herbicide combinations”, Weeds 15, p. 22ff., the value E, which is expected if the activity of the individual active compounds is only additive, was calculated: E=X+Y−(X·Y/100) • where • X=percent activity using active herbicide A at an application rate a; • Y=percent activity using active trifludimoxazin at an application rate b; • E=expected activity (in %) by A+B at application rates a+b.
# (§2) If the value found experimentally is higher than the value E calculated according to Colby, a synergistic effect is present.
# (§3) The culture containers used were plastic pots containing loamy sand with approximately 3.0% of humus as substrate. The seeds of the test plants were sown separately for each species.
# (§4) For the post-emergence treatment, the test plants were grown to a plant height of from 3 to 15 cm, depending on the plant habit, and only then treated with the active compounds which had been suspended or emulsified in water. To this end, the test plants were either sown directly, and grown in the same containers, or they were first grown separately as seedlings and transplanted into the test containers a few days prior to treatment.
# (§5) Depending on the species, the plants were kept at 10-25° C. and 20-35° C., respectively.
# (§6) The test period extended over 2 to 4 weeks. During this time, the plants were tended and their response to the individual treatments was evaluated.
# (§7) Evaluation was carried out using a scale from 0 to 100. 100 means no emergence of the plants, or complete destruction of at least the above-ground parts, and 0 means no damage or normal course of growth. A good herbicidal activity is given at values of at least 70, and very good herbicidal activity is given at values of at least 85.
# (§8) In the greenhouse trials, unless indicated otherwise, herbicide A, trifludimoxazin and saflufenacil were formulated (50 g/I) and applied with addition of 1% MSO (methylated seed oil) as adjuvant. The solvent used was water (200 I/ha).
# [2] = system: Brachiaria decumbens (BRADC); assay: Post-emergence application in greenhouse trials, BRADC; conditions: GS 13
# Method: as §1, §2, §3, §4, §5, §6, §7, §8
# [3] = system: Digitaria sanguinales (DIGSA); assay: Post-emergence application in greenhouse trials, DIGSA
# Method: as §1, §2, §3, §4, §5, §6, §7, §8
# [4] = system: Echinocloa crus-galli (ECHCG); assay: Post-emergence application in greenhouse trials, ECHCG; conditions: GS 13
# Method: as §1, §2, §3, §4, §5, §6, §7, §8
# [5] = system: Setaria faberi (SETFA); assay: Post-emergence application in greenhouse trials, SETFA; conditions: GS 13
# Method: as §1, §2, §3, §4, §5, §6, §7, §8
# [6] = system: Setaria viridis (SETVI); assay: Post-emergence application in greenhouse trials, SETVI
# Method: as §1, §2, §3, §4, §5, §6, §7, §8
# [7] = system: Sorghum halapense (SORHA); assay: Post-emergence application in greenhouse trials, SORHA
# Method: as §1, §2, §3, §4, §5, §6, §7, §8
# [8] = system: Lolium multiflorum (LOLMU); assay: Post-emergence application in greenhouse trials, LOLMU; conditions: 20 DAT
# Method: as §1, §2, §3, §4, §5, §6, §7, §8
# [9] = system: Spermacoce latifolia (BOIFL); assay: Post-emergence application in field trials, BOIFL; conditions: 8 DAT, water volume 200 l/ha, growth stage 12-16, height 3-10 cm
# Method: as §1, §2
# (§9) On field test sites, natural weed infestation or seeded weeds were treated post-emergence of the weeds.
# (§10) In the field trials, the weedy plants were treated as indicated below.
# (§11) Herbicide A-1 (342 g/I), trifludimoxazin (500 g/I) and saflufenacil (342 g/I) were, together with addition of 1% MSO (methylated seed oil) as adjuvant (unless indicated otherwise), formulated in water as distribution medium as indicated and sprayed with commercial flat fan nozzles.
# In the following experiments, the herbicidal activity for the individual herbicidal compositions (solo and mixture applications) was assessed at the indicated days after treatment (DAT). The assessments for the damage on undesired weeds caused by the composition was carried out using a scale from 0 to 100%, compared to the untreated control plants. Here, 0 means no damage and 100 means complete destruction of the plants.
# Herbicide A-1 (100 g/l) and trifludimoxazin (500 g/l) were, together with addition of 1% MSO (methylated seed oil) as adjuvant (unless indicated otherwise), formulated in water as distribution medium as indicated and sprayed with commercial flat fan nozzles.
# [10] = system: Euphorbia heterophylla (EPHHL); assay: Post-emergence application in field trials, EPHHL; conditions: 43 DAT, water volume 200 l/ha, growth stage 16-18, height 10-15 cm
# Method: as §1, §2, §9, §10, §11
# In the following experiments, the herbicidal activity for the individual herbicidal compositions (solo and mixture applications) was assessed at the indicated days after treatment (DAT). […]
# [11] = 20 DAT, growth stage 21, 0.3 g ai/ha
# [12] = 20 DAT, growth stage 14, 0.3 g ai/ha
structure (smiles),measurement,setting,value
"CCOC(=O)COc1ccccc1Oc1nc(-n2c(=O)cc(C(F)(F)F)n(C)c2=O)c(F)cc1Cl [A-1, ethyl 2-[2-[[3-chloro-5-fluoro-6-[3-methyl-2,6-dioxo-4-(trifluoromethyl)pyrimidin-1-yl]-2-pyridyl]oxy]phenoxy]acetate]",% Herbicidal activity,"[1]; 6 DAT, GS 21, A-1 0.3 g ai/ha",65%
same,% Herbicidal activity,"[1]; 20 DAT, GS 21, A-1 0.3 g ai/ha",45%
same,% Herbicidal activity,[1]; [11],45%
same,% Herbicidal activity,"[2]; 7 DAT, B-1 formulated as 500 g/l, A-1 2 g ai/ha",90%
same,% Herbicidal activity,"[2]; 7 DAT, A-1 0.4 g ai/ha",40%
same,% Herbicidal activity,"[2]; 7 DAT, A-1 0.8 g ai/ha",50%
same,% Herbicidal activity,"[2]; 7 DAT, A-1 0.9 g ai/ha",60%
same,% Herbicidal activity,"[2]; 7 DAT, A-1 1 g ai/ha",60%
same,% Herbicidal activity,"[2]; 20 DAT, B-1 formulated as 500 g/l, A-1 2 g ai/ha",90%
same,% Herbicidal activity,"[2]; 20 DAT, A-1 0.9 g ai/ha",55%
same,% Herbicidal activity,"[3]; 7 DAT, GS 12, A-1 0.3 g ai/ha",45%
same,% Herbicidal activity,"[3]; 7 DAT, GS 12, A-1 0.4 g ai/ha",50%
same,% Herbicidal activity,"[3]; 7 DAT, GS 12, A-1 0.8 g ai/ha",65%
same,% Herbicidal activity,"[3]; 7 DAT, GS 12, A-1 0.9 g ai/ha",90%
same,% Herbicidal activity,"[3]; 19 DAT, B-1 formulated as 500 g/l, GS 13, A-1 1 g ai/ha",95%
same,% Herbicidal activity,"[4]; 7 DAT, A-1 0.4 g ai/ha",40%
same,% Herbicidal activity,"[4]; 20 DAT, A-1 0.2 g ai/ha",0%
same,% Herbicidal activity,"[5]; 7 DAT, A-1 0.3 g ai/ha",55%
same,% Herbicidal activity,"[5]; 7 DAT, A-1 0.5 g ai/ha",80%
same,% Herbicidal activity,"[5]; 20 DAT, A-1 0.3 g ai/ha",80%
same,% Herbicidal activity,"[6]; 7 DAT, GS 14, A-1 0.2 g ai/ha",30%
same,% Herbicidal activity,"[6]; 7 DAT, GS 14, A-1 0.3 g ai/ha",30%
same,% Herbicidal activity,"[6]; 7 DAT, GS 14, A-1 0.4 g ai/ha",40%
same,% Herbicidal activity,"[6]; 20 DAT, GS 14, A-1 0.3 g ai/ha",15%
same,% Herbicidal activity,[6]; [12],15%
same,% Herbicidal activity,"[7]; 7 DAT, B-1 formulated as 500 g/l, GS 14, A-1 2 g ai/ha",80%
same,% Herbicidal activity,"[7]; 20 DAT, B-1 formulated as 500 g/l, GS 14, A-1 2 g ai/ha",60%
same,% Herbicidal activity,"[7]; 20 DAT, GS 14, A-1 0.2 g ai/ha",10%
same,% Herbicidal activity,"[7]; 20 DAT, GS 14, A-1 0.3 g ai/ha",10%
same,% Herbicidal activity,[7]; [12],10%
same,% Herbicidal activity,"[8]; GS 13, A-1 0.3 g ai/ha",10%
same,% Herbicidal activity,"[8]; growth stage 13, 0.3 g ai/ha",10%
same,% Herbicidal activity,[9]; 20 g ai/ha,75%
same,% Herbicidal activity,[9]; 30 g ai/ha,82%
same,% Herbicidal activity,[10]; 20 g ai/ha,73%
"C#CCN1C(=O)C(F)(F)Oc2cc(F)c(-n3c(=O)n(C)c(=S)n(C)c3=O)cc21 [B-1, trifludimoxazin]",% Herbicidal activity,"[1]; 6 DAT, GS 21, B-1 0.3 g ai/ha",45%
same,% Herbicidal activity,"[1]; 20 DAT, GS 21, B-1 0.3 g ai/ha",0%
same,% Herbicidal activity,"[1]; 20 DAT, GS 21, B-1 0.9 g ai/ha",15%
same,% Herbicidal activity,[1]; [11],0%
same,% Herbicidal activity,"[2]; 7 DAT, B-1 formulated as 500 g/l, B-1 1 g ai/ha",15%
same,% Herbicidal activity,"[2]; 7 DAT, B-1 formulated as 500 g/l, B-1 2 g ai/ha",15%
same,% Herbicidal activity,"[2]; 7 DAT, B-1 0.2 g ai/ha",10%
same,% Herbicidal activity,"[2]; 7 DAT, B-1 0.3 g ai/ha",10%
same,% Herbicidal activity,"[2]; 7 DAT, B-1 0.4 g ai/ha",10%
same,% Herbicidal activity,"[2]; 7 DAT, B-1 0.8 g ai/ha",45%
same,% Herbicidal activity,"[2]; 20 DAT, B-1 formulated as 500 g/l, B-1 2 g ai/ha",10%
same,% Herbicidal activity,"[2]; 20 DAT, B-1 0.3 g ai/ha",5%
same,% Herbicidal activity,"[3]; 7 DAT, GS 12, B-1 0.3 g ai/ha",15% and 10%
same,% Herbicidal activity,"[3]; 7 DAT, GS 12, B-1 0.4 g ai/ha",15%
same,% Herbicidal activity,"[3]; 7 DAT, GS 12, B-1 0.8 g ai/ha",45%
same,% Herbicidal activity,"[3]; 19 DAT, B-1 formulated as 500 g/l, GS 13, B-1 2 g ai/ha",40%
same,% Herbicidal activity,"[4]; 7 DAT, B-1 0.8 g ai/ha",40%
same,% Herbicidal activity,"[4]; 20 DAT, B-1 1.1 g ai/ha",60%
same,% Herbicidal activity,"[5]; 7 DAT, B-1 0.9 g ai/ha",45%
same,% Herbicidal activity,"[5]; 20 DAT, B-1 0.3 g ai/ha",15%
same,% Herbicidal activity,"[5]; 20 DAT, B-1 0.9 g ai/ha",70%
same,% Herbicidal activity,"[6]; 7 DAT, GS 14, B-1 0.3 g ai/ha",35%
same,% Herbicidal activity,"[6]; 7 DAT, GS 14, B-1 0.8 g ai/ha",45%
same,% Herbicidal activity,"[6]; 7 DAT, GS 14, B-1 0.9 g ai/ha",55%
same,% Herbicidal activity,"[6]; 7 DAT, GS 14, B-1 1 g ai/ha",60%
same,% Herbicidal activity,"[6]; 20 DAT, GS 14, B-1 0.3 g ai/ha",10%
same,% Herbicidal activity,"[6]; 20 DAT, GS 14, B-1 0.9 g ai/ha",70%
same,% Herbicidal activity,[6]; [12],10%
same,% Herbicidal activity,"[7]; 7 DAT, B-1 formulated as 500 g/l, GS 14, B-1 1 g ai/ha",15%
same,% Herbicidal activity,"[7]; 7 DAT, B-1 formulated as 500 g/l, GS 14, B-1 2 g ai/ha",35%
same,% Herbicidal activity,"[7]; 20 DAT, B-1 formulated as 500 g/l, GS 14, B-1 2 g ai/ha",30%
same,% Herbicidal activity,"[7]; 20 DAT, GS 14, B-1 0.9 g ai/ha",65%
same,% Herbicidal activity,"[7]; 20 DAT, GS 14, B-1 1.1 g ai/ha",65%
same,% Herbicidal activity,[7]; [12],10%
same,% Herbicidal activity,"[8]; growth stage 13, 0.9 g ai/ha",15%
same,% Herbicidal activity,[9]; 12.5 g ai/ha,68%
same,% Herbicidal activity,[10]; 12.5 g ai/ha,60%
